Results reported in patent publication US5972975A, “Substituted 2-aminopyridines as inhibitors of nitric oxide synthase” (priority 1997, dated 1999).
Where a name gives a salt, the structure may show the parent alone. Read-outs that look alike come from different tables or passages of the source.

Experiments:
[1] = molecular target: iNOS (Homo sapiens, UniProt P35228); test: NOS activity: L-[3H]citrulline formation from L-[3H]arginine, iNOS; format: biochemical; conditions: iNOS, 1 μM L-Arg, pH 7.5, room temperature, 30 minutes, read-out: iNOS (IC50)
Method: (§1) NOS activity is measured as the formation of L-[2,3,4,5-^3 H]Citrullinefrom L-[2,3,4,5-^3 H]Arginine. The incubation buffer (100 μL) contained; 100 mM TES, pH 7.5, 5 μM FAD, 5 μM FMN, 10 μM BH4, 0.5 mM NADPH, 0.5 mM DTT, 0.5 mg/mL BSA, 2 mM CaCl2, 10 μg/mL calmodulin (bovine), 1 μM L-Arg, 0.2 μCi L-[2,3,4,5-^3 H]Arg, and the inhibitor in aqueous DMSO (max. 5%). The reaction is initiated by addition of enzyme. Incubations are performed at room temperature for 30 minutes and stopped by the addition of an equal volume of quenching buffer consisting of 200 mM sodium citrate, pH 2.2, 0.02% sodium azide. Reaction products are separated by passing through a cation exchange resin and quantitated as cpm by scintillation counting.

[2] = molecular target: ecNOS (Homo sapiens, UniProt P29474); test: NOS activity: L-[3H]citrulline formation from L-[3H]arginine, ecNOS; format: biochemical; conditions: ecNOS, 1 μM L-Arg, pH 7.5, room temperature, 30 minutes, read-out: ecNOS (IC50)
Method: as §1

[3] = molecular target: ncNOS (Homo sapiens, UniProt P29475); test: biochemical; conditions: ncNOS, 1 μM L-Arg, pH 7.5, room temperature, 30 minutes, read-out: ncNOS (IC50)
Sequence of ncNOS (P29475 whole entry): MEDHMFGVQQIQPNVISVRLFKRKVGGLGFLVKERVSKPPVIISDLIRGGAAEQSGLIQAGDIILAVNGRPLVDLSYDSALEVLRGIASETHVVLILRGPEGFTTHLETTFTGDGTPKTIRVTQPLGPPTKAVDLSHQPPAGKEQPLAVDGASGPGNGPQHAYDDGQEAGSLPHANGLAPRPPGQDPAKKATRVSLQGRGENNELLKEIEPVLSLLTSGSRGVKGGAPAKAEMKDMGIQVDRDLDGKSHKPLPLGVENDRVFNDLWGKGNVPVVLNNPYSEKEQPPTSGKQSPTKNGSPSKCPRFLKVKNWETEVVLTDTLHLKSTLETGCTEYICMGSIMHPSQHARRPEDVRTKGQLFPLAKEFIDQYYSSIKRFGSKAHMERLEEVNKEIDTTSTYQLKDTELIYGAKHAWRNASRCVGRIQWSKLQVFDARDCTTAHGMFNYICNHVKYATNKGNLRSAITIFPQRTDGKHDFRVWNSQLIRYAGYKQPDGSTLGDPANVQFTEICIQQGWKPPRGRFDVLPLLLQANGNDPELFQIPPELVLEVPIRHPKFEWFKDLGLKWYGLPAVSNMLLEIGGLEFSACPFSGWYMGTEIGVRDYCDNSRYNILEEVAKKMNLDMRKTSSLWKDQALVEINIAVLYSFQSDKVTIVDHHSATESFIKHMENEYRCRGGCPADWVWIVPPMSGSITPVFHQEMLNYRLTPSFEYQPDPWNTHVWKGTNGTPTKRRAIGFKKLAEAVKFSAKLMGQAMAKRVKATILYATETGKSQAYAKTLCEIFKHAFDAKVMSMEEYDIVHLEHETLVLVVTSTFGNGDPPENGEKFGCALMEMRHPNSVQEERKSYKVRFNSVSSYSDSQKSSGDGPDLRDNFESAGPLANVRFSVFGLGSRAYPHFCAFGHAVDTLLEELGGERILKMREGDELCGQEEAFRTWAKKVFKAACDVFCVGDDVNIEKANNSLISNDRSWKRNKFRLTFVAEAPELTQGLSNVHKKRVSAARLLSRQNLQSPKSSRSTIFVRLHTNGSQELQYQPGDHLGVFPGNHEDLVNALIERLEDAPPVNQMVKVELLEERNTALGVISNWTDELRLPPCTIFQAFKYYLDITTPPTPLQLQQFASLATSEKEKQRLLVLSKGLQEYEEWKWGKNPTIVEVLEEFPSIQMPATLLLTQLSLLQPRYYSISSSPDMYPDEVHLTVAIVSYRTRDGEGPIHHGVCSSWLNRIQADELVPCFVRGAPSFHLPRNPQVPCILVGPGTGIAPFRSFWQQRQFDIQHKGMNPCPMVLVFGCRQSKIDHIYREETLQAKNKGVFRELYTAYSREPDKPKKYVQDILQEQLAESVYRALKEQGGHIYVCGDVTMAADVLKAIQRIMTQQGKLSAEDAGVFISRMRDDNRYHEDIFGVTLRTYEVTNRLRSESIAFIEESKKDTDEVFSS

IC50 ([1]; Table 2) | IC50 ([2]; Table 2) | IC50 ([1]; Table 1) | SMILES | further results
< 10 µM | < 10 µM | – | Cc1ccc(N)nc1C [Example 51, 2-Amino-5,6-dimethylpyridine] | IC50 ([3]; Table 2): < 10 µM
– | – | 0.076 µM | Cc1ccnc(N)c1C [Example 13, 2-Amino-3,4-dimethylpyridine] | IC50 ([2]; Table 1): < 1 µM
< 50 µM | < 10 µM | – | Cc1cnc(N)c(C)c1 [Example 50, 2-Amino-3,5-dimethylpyridine] | IC50 ([3]; Table 2): < 10 µM
< 10 µM | < 10 µM | – | CC(=O)NCCCCc1cc(C)cc(N)n1 [Example 57, 6-(4-Acetamidobutyl)-2-amino-4-methylpyridine] | IC50 ([3]; Table 2): < 1 µM
– | – | 47.5 µM | Nc1ncccc1O [Example 9] | IC50 ([2]; Table 1): > 50 µM; IC50 ([3]; Table 1): > 50 µM
< 10 µM | < 1 µM | – | Cc1cc(N)nc(CCCC(=O)O)c1 [Example 75, 4-(6-Amino-4-methyl-2-pyridinyl)butanoic acid hydrochloride] | IC50 ([3]; Table 2): < 10 µM
< 10 µM | < 50 µM | – | Cc1cc(N)ncc1Cl [Example 29, 2-Amino-5-chloro-4-picoline] | IC50 ([3]; Table 2): < 50 µM
– | – | > 50 µM | Nc1cc(-c2ccccc2)ccn1 [Example 11] | –
< 50 µM | < 50 µM | – | Cc1cc(N)nc(CCCc2ccccc2)c1 [Example 69, 2-Amino-4-methyl-6-(3-phenylpropyl)pyridine] | IC50 ([3]; Table 2): < 10 µM
< 1 µM | < 1 µM | – | CCc1cccc(N)n1 [Example 52, 2-Amino-6-ethylpyridine] | IC50 ([3]; Table 2): < 1 µM
– | – | 0.108 µM | Cc1cc(C)nc(N)c1 [Example 6] | –
< 10 µM | < 10 µM | – | CCc1c(C)ccnc1N [Example 24, 2-Amino-3-ethyl-4-picoline dihydrochloride] | –
– | – | > 50 µM | CC(C)(C)c1ccnc(N)c1 [Example 14, 2-Amino-4-tert-butylpyridine] | –
– | – | 2.4 µM | Cc1ccnc(NCc2ccccc2)c1 [Example 18, 2-Benzylamino-4-methylpyridine] | IC50 ([2]; Table 1): < 50 µM
– | – | – | Cc1cccc(N)n1 [Example 5] | IC50 ([2]; Table 1): 0.82 µM
< 50 µM | – | – | CCCc1c(C)ccnc1N [Example 26, 2-Amino-3-n-propyl-4-picoline dihydrochloride] | –

IC50 ([1]; Table 2) | IC50 ([2]; Table 2) | IC50 ([1]; Table 1) | SMILES | further results
– | – | 3.4 µM | Cc1cccnc1N [Example 2] | IC50 ([2]; Table 1): 1.2 µM
– | – | > 50 µM | Nc1cc(Cc2ccccc2)ccn1 [Example 12] | –
– | – | 1.3 µM | Cc1ccc(N)nc1 [Example 4] | IC50 ([2]; Table 1): 3.1 µM
< 10 µM | – | – | Cc1cc(N)ncc1CO [Example 47, 2-Amino-5-hydroxymethyl-4-methylpyridine] | –
– | – | 0.058 µM | Cc1ccnc(N)c1N [Example 17, 2,3-Diamino-4-methylpyridine] | IC50 ([2]; Table 1): 0.081 µM
– | – | < 10 µM | Nc1cccnc1N [Example 10] | IC50 ([2]; Table 1): 1.9 µM
– | – | > 50 µM | N#Cc1ccnc(N)c1 [Example 16, 2-Amino-4-cyanopyridine] | –
< 10 µM | – | – | Nc1cc2c(cn1)CCCC2 [Example 64, 3-Amino-5,6,7,8-tetrahydroisoquinoline] | –
> 50 µM | – | – | COC(=O)c1cnc(N)cc1C [Example 44, 2-Amino-5-methoxycarbonyl-4-methylpyridine] | –
> 50 µM | – | – | Cc1cc(N)ncc1-c1ccccc1 [Example 40, 2-Amino-4-methyl-5-phenylpyridine] | –
< 10 µM | < 50 µM | – | CCc1ccc(N)nc1 [Example 60, 2-Amino-5-ethylpyridine] | –
> 50 µM | – | – | Cc1cc(N)ncc1C#N [Example 42, 2-Amino-5-cyano-4-methylpyridine] | –
– | – | 13.2 µM | Nc1cc(C(F)(F)F)ccn1 [Example 8] | IC50 ([2]; Table 1): 73 µM
> 50 µM | – | – | Nc1ccc(-c2ccccc2)cn1 [Example 39, 2-Amino-5-phenylpyridine] | –
< 1 µM | < 1 µM | – | Cc1ccnc(N)c1CO [Example 23, 2-Amino-3-hydroxymethyl-4-picoline] | –

SMILES | IC50 ([1]; Table 2) | IC50 ([2]; Table 2) | IC50 ([1]; Table 1) | further results
Cc1cc(N)nc(CCN)c1 [Example 67, 2-Amino-6-(2-aminoethyl)-4-methylpyridine] | < 1 µM | < 50 µM | – | IC50 ([3]; Table 2): < 1 µM
